Experimental data published in PMC4008314 (Clinical cancer research : an official journal of the …, 2012).
Like-named read-outs stand apart in the source and are kept apart here.

Legend:
[1] = system: circulating endothelial cells (CEC); test: Circulating endothelial cells by fluorescence-activated cell sorter; assay type: in vivo, children; conditions: paired samples (n = 21), baseline vs end of cycle 1
[2] = in vivo
[3] = human, in vivo

## CNC(=O)c1cc(Oc2ccc(NC(=O)Nc3ccc(Cl)c(C(F)(F)F)c3)cc2)ccn1 [Sorafenib]
[1]
  CEC number, change: no change
[2]; human
  Anorexia grade 2 (non-DLT): 1
  Headache grade 2 (non-DLT): 1
  Hyperglycemia grade 1 (non-DLT): 1
  Hypocalcemia grade 2 (non-DLT): 1
  Hypokalemia grade 3 (non-DLT): 1
  Hypomagnesemia grade 1 (non-DLT): 2
  Hypophosphatemia grade 2 (non-DLT): 1
  Increased AST grade 1 (non-DLT): 1
  Increased bilirubin grade 1 (non-DLT): 1
  Nausea grade 1 (non-DLT): 1
  Rash/Desquamation grade 1 (non-DLT): 2
[2]; human, 28 days
  Anorexia grade 1 (non-DLT): 1
  Anorexia grade 2 (non-DLT): 1
  Diarrhea grade 1 (non-DLT): 2
  Diarrhea grade 2 (non-DLT): 1
  Fatigue grade 2 (non-DLT): 2
  Hyperglycemia grade 1 (non-DLT): 2
  Increased ALT grade 1 (non-DLT): 1
  Increased ALT grade 2 (non-DLT): 1
  Increased AST grade 1 (non-DLT): 3
  Increased AST grade 2 (non-DLT): 1
  Increased bilirubin grade 1 (non-DLT): 2
  Nausea grade 1 (non-DLT): 2
  recommended phase II dose: 150 mg/m^2/dose
[2]; human, 28 days (course 1)
  Headache grade 1 (non-DLT): 1
  Headache grade 2 (non-DLT): 1
  Hyperglycemia grade 2 (non-DLT): 1
  Hypoalbuminemia grade 1 (non-DLT): 1
  Hypoalbuminemia grade 2 (non-DLT): 1
  Hypocalcemia grade 1 (non-DLT): 1
  Hypocalcemia grade 2 (non-DLT): 1
  Hypokalemia grade 1 (non-DLT): 2
  Hypomagnesemia grade 1 (non-DLT): 1
  Hypomagnesemia grade 3 (non-DLT): 1
  Hyponatremia grade 1 (non-DLT): 2
  Hypophosphatemia grade 2 (non-DLT): 1
  Hypophosphatemia grade 3 (non-DLT): 1
  Proteinuria grade 1 (non-DLT): 1
  Proteinuria grade 2 (non-DLT): 1
[2]
  dose-limiting ALT/AST elevation: No dose-limiting ALT/AST elevation
[3]
  Tmax, steady state: 48 min
